For this assay, the target named is GABAA central benzodiazepine receptor. Description: Benzodiazepine Binding Assay. The note with it: read-out: BZ binding Assay IC50; 1 nM (3H)-flunitrazepam, rat whole brain (except cerebellum) membranes, 60 minutes at 25° C.
Regarding `CC(C)N1CCN(C(=O)n2cc3c(=O)n(-c4ccccc4)nc-3c3ccccc32)CC1` [Compd 8, 5-(4-Isopropylpiperazine-1-carbonyl)-2-phenyl-2,5-dihydro-pyrazolo-(4,3-c)quinolin-3-one], the IC50 was below 1000 nM.
In the case of `CC(C)N1CCN(C(=O)n2cc3c(=O)n(-c4ccccc4)nc-3c3cc(F)c(F)cc32)CC1` [Compd 21, 5-(4-Isopropylpiperazine-1-carbonyl)-7,8-difluoro-2-phenyl-2,5-dihydro-pyrazolo-(4,3-c)quinolin-3-one], the IC50 is below 1000 nM.
As to `CN(C)C1CCN(C(=O)n2cc3c(=O)n(-c4ccccc4)nc-3c3ccccc32)CC1` [Compd 33, 5-(4-N,N-Dimethylaminopiperidine-1-carbonyl)-2-phenyl-2,5-dihydro-pyrazolo-(4,3-c)quinolin-3-one], the IC50 was below 1000 nM.
Take `CN1CCN(C(=O)n2cc3c(=O)n(-c4ccccc4)nc-3c3cc(C(F)(F)F)ccc32)CC1` [Compd 45, 5-(4-Methylpiperazine-1-carbonyl)-2-phenyl-8-trifluoromethyl-2,5-dihydro-pyrazolo[4,3-c]quinolin-3-one]: the IC50 is below 1000 nM.
Consider `O=C(N1CCCCC1)n1cc2c(=O)n(-c3ccccc3)nc-2c2ccccc21` [Compd 12, 5-(Piperidine-1-carbonyl)-2-phenyl-2,5-dihydro-pyrazolo-(4,3-c)quinolin-3-one], for which the IC50 is below 1000 nM.
Regarding `C=CCN1CCN(C(=O)n2cc3c(=O)n(-c4ccccc4)nc-3c3ccccc32)CC1` [Compd 14, 5-(4-Allylpiperazine-1-carbonyl)-2-phenyl-2,5-dihydro-pyrazolo-(4,3-c) quinolin-3-one], the IC50 is below 1000 nM.
For `Cc1ccc2c(c1)c1nn(-c3ccccc3)c(=O)c-1cn2C(=O)N1CCCN(C)CC1` [Compd 29, 5-(4-Methylperhydro[1,4]-diazepine-1-carbonyl)-8-methyl-2-phenyl-2,5-dihydro-pyrazolo-(4,3-c)quinolin-3-one] the value was below 1000 nM.
Consider `O=C(N1CCN(c2ccccc2)CC1)n1cc2c(=O)n(-c3ccccc3)nc-2c2ccccc21` [Compd 10, 5-(4-Phenylpiperazine-1-carbonyl)-2-phenyl-2,5-dihydro-pyrazolo-(4,3-c) quinolin-3-one], for which the IC50 was below 1000 nM.
Turning to `O=C(N1CCN(c2ccccc2)CC1)n1cc2c(=O)n(-c3ccccc3)nc-2c2cc(F)ccc21` [Compd 37, 5-(4-Phenylpiperazine-1-carbonyl)-8-fluoro-2-phenyl-2,5-dihydro-pyrazolo-(4,3-c)quinolin-3-one], the IC50 is below 1000 nM.
Consider `COc1ccc2c(c1)c1nn(-c3ccccc3)c(=O)c-1cn2C(=O)N1CCN(C)CC1` [Compd 42, 8-Methoxy-5-(4-methylpiperazine-1-carbonyl)-2-phenyl-2,5-dihydro-pyrazolo-(4,3-c)quinolin-3-one], for which the IC50 was below 1000 nM.
On to `CC1CCCN1C(=O)n1cc2c(=O)n(-c3ccccc3)nc-2c2ccccc21` (centres unmarked) [Compd 9, 5-(2-Methylpyrrolidine-1-carbonyl)-2-phenyl-2,5-dihydro-pyrazolo-(4,3-c) quinolin-3-one], for which the IC50 was below 1000 nM.

As usually defined, the IC50 is the concentration at which inhibition is half-maximal.

The values above are taken from patent US8343957B2, “Therapeutic pyrazoloquinoline urea derivatives” (Dart Neuroscience (Cayman) Ltd., priority 2007, dated 2013).
